Experimental data as given in patent US8791132B2, “Compounds and methods for treatment of hypertension” (Medivation Technologies, Inc., priority 2011, dated 2014).
Values joined by “and” are separate entries in the source; they are usually repeats but may differ in a detail not shown here. Equal entries are not always repeated.

How the values were obtained:
[1] = target: T1, rat adrenergic α1B receptor (Rattus norvegicus, UniProt P15823); assay: Radioligand binding, adrenergic α1B ([3H]Prazosin); conditions: [3H]Prazosin, repeat datapoints each shown; for inhibition at 0.1 µM: read-out: Percentage inhibition of ligand binding, Adrenergic α1B (0.1 μM), compound at 0.1 μM
T1 construct: rat adrenergic α1B receptor obtained from Wistar Rat liver; from tissue; host or cells: Wistar rat liver
T1 sequence (P15823 1-515): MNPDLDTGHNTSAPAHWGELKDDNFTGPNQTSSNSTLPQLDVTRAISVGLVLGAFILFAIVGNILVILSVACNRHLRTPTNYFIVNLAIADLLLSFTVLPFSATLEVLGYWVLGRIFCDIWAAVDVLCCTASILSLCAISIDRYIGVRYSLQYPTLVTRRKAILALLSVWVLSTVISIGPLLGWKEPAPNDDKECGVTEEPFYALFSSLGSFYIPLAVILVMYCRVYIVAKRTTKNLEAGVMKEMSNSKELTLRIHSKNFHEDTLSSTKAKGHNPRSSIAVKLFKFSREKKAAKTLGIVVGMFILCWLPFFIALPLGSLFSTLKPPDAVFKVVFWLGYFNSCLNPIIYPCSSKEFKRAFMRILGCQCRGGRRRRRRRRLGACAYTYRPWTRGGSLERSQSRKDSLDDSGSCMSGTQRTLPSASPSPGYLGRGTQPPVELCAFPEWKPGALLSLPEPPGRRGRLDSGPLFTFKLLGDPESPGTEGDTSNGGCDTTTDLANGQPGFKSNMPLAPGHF
How it was run: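 Filter binding with Wistar rat liver α1B preparation: test compound plus 0.25 nM [3H]prazosin, 1 h at 25° C in modified Tris-HCl buffer pH 7.4.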

[2] = target: T2, human recombinant adrenergic α1D receptor (Homo sapiens, UniProt P25100); assay: Radioligand binding, adrenergic α1D ([3H]Prazosin); conditions: [3H]Prazosin, repeat datapoints each shown; for inhibition at 0.1 µM: read-out: Percentage inhibition of ligand binding, Adrenergic α1D (0.1 μM), compound at 0.1 μM
T2 construct: expressed in transfected cells; host or cells: HEK-293
T2 sequence (P25100 1-572): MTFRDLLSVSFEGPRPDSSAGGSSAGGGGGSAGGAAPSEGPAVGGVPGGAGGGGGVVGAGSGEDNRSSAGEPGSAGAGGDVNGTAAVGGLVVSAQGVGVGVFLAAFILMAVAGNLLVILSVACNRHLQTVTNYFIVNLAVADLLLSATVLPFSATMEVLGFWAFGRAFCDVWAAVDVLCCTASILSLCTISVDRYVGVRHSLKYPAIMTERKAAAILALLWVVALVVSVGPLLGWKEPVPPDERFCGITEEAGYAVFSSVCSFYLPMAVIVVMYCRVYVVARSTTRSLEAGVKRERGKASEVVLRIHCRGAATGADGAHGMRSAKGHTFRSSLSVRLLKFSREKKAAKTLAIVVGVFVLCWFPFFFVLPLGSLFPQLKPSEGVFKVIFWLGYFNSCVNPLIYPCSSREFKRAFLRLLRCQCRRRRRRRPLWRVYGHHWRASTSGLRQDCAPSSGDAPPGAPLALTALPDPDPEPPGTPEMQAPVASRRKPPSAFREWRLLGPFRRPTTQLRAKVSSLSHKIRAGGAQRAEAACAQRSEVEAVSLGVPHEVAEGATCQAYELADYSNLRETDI
Description: Compounds were incubated with 0.6 nM [3H]Prazosin for 60 min at 25° C. Non-specific binding was estimated in the presence of 10 μM phentolamine. Receptor proteins were filtered and washed, the filters were then counted to determine [3H]Prazosin specifically bound. […] Biochemical assay results are presented as the percent inhibition of specific binding in Table B1.

[3] = target: T3, human recombinant adrenergic α2A receptor (Homo sapiens, UniProt P08913); assay: Radioligand binding, adrenergic α2A ([3H]MK-912); conditions: for inhibition at 0.1 µM: read-out: Percentage inhibition of ligand binding, Adrenergic α2A (0.1 μM), compound at 0.1 μM
T3 construct: expressed in transfected cells; host or cells: insect Sf9 cells
T3 sequence (P08913 1-465): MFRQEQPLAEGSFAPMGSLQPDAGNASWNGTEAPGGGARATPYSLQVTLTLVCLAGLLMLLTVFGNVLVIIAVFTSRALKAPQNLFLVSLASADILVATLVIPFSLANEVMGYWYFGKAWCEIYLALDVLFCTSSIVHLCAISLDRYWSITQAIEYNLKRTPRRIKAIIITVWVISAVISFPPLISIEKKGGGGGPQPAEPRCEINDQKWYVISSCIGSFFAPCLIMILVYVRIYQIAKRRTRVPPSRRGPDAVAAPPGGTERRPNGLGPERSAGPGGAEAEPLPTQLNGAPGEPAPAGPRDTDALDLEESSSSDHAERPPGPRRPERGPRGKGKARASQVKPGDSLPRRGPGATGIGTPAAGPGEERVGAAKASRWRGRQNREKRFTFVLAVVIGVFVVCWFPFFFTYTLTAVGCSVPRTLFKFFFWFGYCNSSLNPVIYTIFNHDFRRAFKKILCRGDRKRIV
How it was run: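 In 50 mM Tris-HCl (pH 7.4) containing 12.5 mM MgCl2 and 2 mM EDTA, Sf9-expressed receptor was exposed to test compound plus 1 nM [3H]MK-912 at 25 °C for 60 min. Specific binding, corrected using 10 μM WB-4101, was quantified by filtration and counting and expressed as percent inhibition.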

[4] = target: T4, human recombinant adrenergic α2B receptor (Homo sapiens, UniProt P18089); assay: Radioligand binding, adrenergic α2B ([3H]Rauwolscine); conditions: [3H]Rauwolscine, repeat datapoints each shown; for inhibition at 0.1 µM: read-out: Percentage inhibition of ligand binding, Adrenergic α2B (0.1 μM), compound at 0.1 μM
T4 construct: expressed in transfected cells; host or cells: CHO-K1
T4 sequence (P18089 1-450): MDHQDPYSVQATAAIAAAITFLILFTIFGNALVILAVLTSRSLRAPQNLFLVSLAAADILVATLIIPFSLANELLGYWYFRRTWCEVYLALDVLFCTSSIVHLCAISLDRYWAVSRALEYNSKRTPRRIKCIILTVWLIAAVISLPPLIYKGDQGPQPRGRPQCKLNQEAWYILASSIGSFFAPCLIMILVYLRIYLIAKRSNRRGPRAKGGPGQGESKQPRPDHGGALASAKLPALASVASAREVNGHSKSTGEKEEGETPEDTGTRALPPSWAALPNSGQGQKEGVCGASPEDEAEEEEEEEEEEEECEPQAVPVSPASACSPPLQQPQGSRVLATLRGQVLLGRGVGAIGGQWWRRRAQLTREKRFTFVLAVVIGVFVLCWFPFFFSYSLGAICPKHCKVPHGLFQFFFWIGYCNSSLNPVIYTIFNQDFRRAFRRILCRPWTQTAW
How it was run: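 Values are percent inhibition of specific radioligand binding. The receptor, expressed in CHO-K1 cells, was exposed to 2.5 nM [3H]Rauwolscine at 25° C for 60 min, with 10 μM Prazosin marking non-specific binding.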

[5] = [3H]MK-912, repeat datapoints each shown

Row | SMILES | inhibition at 0.1 µM [1] [%] | inhibition at 0.1 µM [2] [%] | inhibition at 0.1 µM [3, 5] [%] | inhibition at 0.1 µM [4] [%] | inhibition at 0.03 µM ([1]; read-out: Percentage inhibition of ligand binding, Adrenergic α1B (0.03 μM), compound at 0.03 μM) [%] | inhibition at 0.03 µM ([2]; read-out: Percentage inhibition of ligand binding, Adrenergic α1D (0.03 μM), compound at 0.03 μM) [%] | Ki [3] [nM] | inhibition at 0.03 µM ([4]; read-out: Percentage inhibition of ligand binding, Adrenergic α2B (0.03 μM), compound at 0.03 μM) [%] | Percentage inhibition of ligand binding, Adrenergic α2A (0.1 μM) ([3]; compound at 0.1 μM, [3H]MK-912, repeat datapoints each shown, 0.1 µM) | inhibition at 0.03 µM ([3]; read-out: Percentage inhibition of ligand binding, Adrenergic α2A (0.03 μM), compound at 0.03 μM, [3H]MK-912, repeat datapoints each shown) [%]
1 | C/C(=C\n1c2c(c3cc(C)ccc31)CCN(C)CC2)c1ccncn1 [compound 106] | 65 | 45 | 6 | 79 |  |  |  |  |  | 
2 | CNC(=O)c1cccc(/C(C)=C/n2c3c(c4cc(C)ccc42)CN(C)CC3)c1 [compound 107] | 56 | 63 | 10 | 85 |  |  |  |  |  | 
3 | C/C(=C\n1c2c(c3cc(C)ccc31)CN(C)CC2)c1ccnn1C [compound 108] | 42 | 21 | 20 | 88 |  |  |  |  |  | 
4 | C/C(=C\n1c2c(c3cc(C)ccc31)CN(C)CC2)c1cnn(C)c1 [compound 109] | 13 | 21 | 25 | 69 |  |  |  |  |  | 
5 | C/C(=C\n1c2c(c3cc(C)ccc31)CN(C)CC2)c1c(C)noc1C [compound 110] | 5 | 35 | 27 | 62 |  |  |  |  |  | 
6 | CC(=O)Nc1ccc(/C(C)=C\n2c3c(c4cc(C)ccc42)CN(C)CC3)cn1 [compound 111] | 56 | 77 | 0 | 65 |  |  |  |  |  | 
7 | CC(=O)Nc1ccc(/C(C)=C/n2c3c(c4cc(C)ccc42)CN(C)CC3)cn1 [compound 112] | 44 | 40 | 26 | 79 |  |  |  |  |  | 
8 | C/C(=C\n1c2c(c3cc(C)ccc31)CN(C)CC2)c1cccc2ccccc12 [compound 113] | 12 | 3 | 29 | 87 |  |  |  |  |  | 
9 | C/C(=C\n1c2c(c3cc(C)ccc31)CN(C)CC2)c1cn[nH]c1 [compound 115] | 19 | 24 | 21 | 94 |  |  |  |  |  | 
10 | C=C(Cn1c2c(c3cc(Cl)ccc31)CN(C)CC2)c1ccncc1 [compound 116] | 23 | 26 | 22 | 75 |  |  |  |  |  | 
11 | C=C(n1ccnc1)n1c2c(c3cc(C)ccc31)CN(C)CC2 [compound 118, 5-(1-imidazol-1-yl-vinyl)-2,8-dimethyl-2,3,4,5-tetrahydro-1H-pyrido[4,3-b]indole] | 35 | 7 | 19 | 60 |  |  |  |  |  | 
12 | Cc1ccc(CCn2c3c(c4ccc(C(F)(F)F)cc42)CN(C)CC3)cn1 [compound 119] | 14 | -6 | 14 | 60 |  |  |  |  |  | 
13 | C=C(Cn1c2c(c3cc(C)ccc31)CN(C)CC2)c1ccncc1 [compound 121] | 6 | 44 | 16 | 88 |  |  |  |  |  | 

Other lines, results leading:

Row | inhibition at 0.1 µM [1] [%] | inhibition at 0.1 µM [2] [%] | inhibition at 0.1 µM [3, 5] [%] | inhibition at 0.1 µM [4] [%] | inhibition at 0.03 µM ([1]; read-out: Percentage inhibition of ligand binding, Adrenergic α1B (0.03 μM), compound at 0.03 μM) [%] | inhibition at 0.03 µM ([2]; read-out: Percentage inhibition of ligand binding, Adrenergic α1D (0.03 μM), compound at 0.03 μM) [%] | Ki [3] [nM] | inhibition at 0.03 µM ([4]; read-out: Percentage inhibition of ligand binding, Adrenergic α2B (0.03 μM), compound at 0.03 μM) [%] | Percentage inhibition of ligand binding, Adrenergic α2A (0.1 μM) ([3]; compound at 0.1 μM, [3H]MK-912, repeat datapoints each shown, 0.1 µM) | inhibition at 0.03 µM ([3]; read-out: Percentage inhibition of ligand binding, Adrenergic α2A (0.03 μM), compound at 0.03 μM, [3H]MK-912, repeat datapoints each shown) [%] | SMILES
14 | 51 | 84 | 13 | 96 |  |  |  |  |  |  | CNC(=O)c1ccc(/C(C)=C/n2c3c(c4cc(C)ccc42)CN(C)CC3)cn1 [compound 122]
15 | 19 | 12 | -2 | 63 |  |  |  |  |  |  | C/C(=C\n1c2c(c3cc(C)cnc31)CN(C)CC2)c1ccncc1 [compound 124]
16 | -3 | 1 | -4 | 68 |  |  |  |  |  |  | C/C(=C\n1c2c(c3cc(C)ccc31)CN(C)CC2)c1ccc(CO)nc1 [compound 125, (E)-(5-(1-(2,8-dimethyl-3,4-dihydro-1H-pyrido[4,3-b]indol-5(2H)-yl)prop-1-en-2-yl)pyridin-2-yl)methanol]
17 | 30 | 46 | 12 | 82 |  |  |  |  |  |  | COCc1ccc(/C(C)=C/n2c3c(c4cc(C)ccc42)CN(C)CC3)cn1 [compound 126]
18 |  |  | 93 |  | 60 | 24 | 184 | 95 |  |  | Cc1ccc2c(c1)c1c(n2CCc2ccc(Cl)cc2)CCN(C)C1 [compound 184, 5-(4-Chlorophenethyl)-2,3,4,5-tetrahydro-2,8-dimethyl-1H-pyrido[4,3-b]indole]
19 | 60 | 48 |  | 105 |  |  |  |  | 66% and 90% | 35 | C/C(=C\n1c2c(c3cc(C)cc(C)c31)CN(C)CC2)c1ccc(C)nc1 [compound 188]
20 | 93 | 88 | 77 | 103 |  |  |  |  |  |  | C/C(=C\n1c2c(c3cc(C)ccc31)C1CCCN1CC2)c1ccc(C)nc1 (stereo not shown) [compound 193, 10-methyl-7-(2-(6-methylpyridin-3-yl)prop-1-enyl)-2,3,5,6,7,11c-hexahydro-1H-indolizino[7,8-b]indole]
